Series [1] addresses Proto-oncogene tyrosine-protein kinase Src (Homo sapiens) (UniProt P12931). Nature of the series: Binding affinity to c-Src in human MCF7 cells by SDS-PAGE based pull-down assay. The series is classed as cell-based.
Series [2] addresses Receptor-type tyrosine-protein phosphatase alpha (Homo sapiens) (UniProt P18433). The series can be described thus: Binding affinity to PTPalpha in human MCF7 cells by SDS-PAGE based pull-down assay. In kind it is cell-based.
Series [3] is described as follows: Retention time of the compound by HPLC method. The series is classed as physicochemical.
Series [4] deals with T1, Tyrosine-protein phosphatase non-receptor type 1 (Homo sapiens) (UniProt P18031).
T1 sequence (whole entry): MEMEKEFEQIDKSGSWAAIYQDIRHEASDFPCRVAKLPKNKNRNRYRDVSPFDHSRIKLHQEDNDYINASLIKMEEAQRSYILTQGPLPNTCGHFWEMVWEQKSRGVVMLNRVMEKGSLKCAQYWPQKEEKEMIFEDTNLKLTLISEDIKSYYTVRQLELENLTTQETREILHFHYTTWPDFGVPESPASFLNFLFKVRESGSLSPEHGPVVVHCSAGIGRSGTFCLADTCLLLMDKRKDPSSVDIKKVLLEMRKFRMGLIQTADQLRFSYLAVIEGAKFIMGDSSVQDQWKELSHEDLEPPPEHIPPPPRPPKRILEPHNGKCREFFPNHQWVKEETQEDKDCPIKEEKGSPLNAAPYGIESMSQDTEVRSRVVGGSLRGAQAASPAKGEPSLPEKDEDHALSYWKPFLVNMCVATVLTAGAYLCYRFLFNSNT
Nature of the series: Binding affinity to PTP1B in human MCF7 cells by SDS-PAGE based pull-down assay. The series is classed as cell-based.

Series [5] has as its target T2, Tyrosine-protein phosphatase non-receptor type 2 (Homo sapiens) (UniProt P17706).
T2 sequence (whole entry): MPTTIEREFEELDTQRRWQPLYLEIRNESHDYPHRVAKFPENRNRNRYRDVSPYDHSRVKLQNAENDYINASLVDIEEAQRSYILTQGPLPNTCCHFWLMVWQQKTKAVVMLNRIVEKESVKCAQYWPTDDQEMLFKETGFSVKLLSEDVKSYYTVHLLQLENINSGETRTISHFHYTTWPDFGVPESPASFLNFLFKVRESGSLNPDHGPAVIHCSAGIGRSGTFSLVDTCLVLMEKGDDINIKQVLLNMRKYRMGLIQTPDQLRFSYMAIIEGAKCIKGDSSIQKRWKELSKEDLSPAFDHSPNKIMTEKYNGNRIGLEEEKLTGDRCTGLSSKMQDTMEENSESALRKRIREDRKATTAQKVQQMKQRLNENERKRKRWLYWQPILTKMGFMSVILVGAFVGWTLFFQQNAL
Nature of the series: Binding affinity to TCPTP in human MCF7 cells by SDS-PAGE based pull-down assay. The series is classed as cell-based.

Series [6] has as its target T1, Tyrosine-protein phosphatase non-receptor type 1 (Homo sapiens). The series can be described thus: Binding affinity to PTP1B in human U2OS cells by SDS-PAGE based pull-down assay. In kind it is cell-based.

Molecules are shown by their SMILES. Activity calls are given as the source filed them. The calls are words filed in the database; no cut-off is given here. *1 amine or outer side, *2 acyl side, *3 side chain or, on linkers, in order; H or OH if unused. Where a SMILES comes first, the peptide text is derived from it. [ ]: non-standard residue; d: D form. The star is where a group is joined. F2Pmp = N[C@@H](Cc1ccc(C(F)(F)P(=O)(O)O)cc1)C(=O)O; Biotin = O=C1N[C@H]2[C@H](CS[C@H]2CCCCC(=O)*)N1; X1 = [N-]=[N+]=N[C@@H](CCCCN[*:1])C(=O)[*:2]; pY = N[C@@H](Cc1ccc(OP(=O)(O)O)cc1)C(=O)O; Hexanoyl(6-N3) = [N-]=[N+]=NCCCCCC(=O)*; Pra = C#CC[C@H](N)C(=O)O

Chain of Proto-oncogene tyrosine-protein kinase Src (Homo sapiens) (P12931 2-536 limits assumed): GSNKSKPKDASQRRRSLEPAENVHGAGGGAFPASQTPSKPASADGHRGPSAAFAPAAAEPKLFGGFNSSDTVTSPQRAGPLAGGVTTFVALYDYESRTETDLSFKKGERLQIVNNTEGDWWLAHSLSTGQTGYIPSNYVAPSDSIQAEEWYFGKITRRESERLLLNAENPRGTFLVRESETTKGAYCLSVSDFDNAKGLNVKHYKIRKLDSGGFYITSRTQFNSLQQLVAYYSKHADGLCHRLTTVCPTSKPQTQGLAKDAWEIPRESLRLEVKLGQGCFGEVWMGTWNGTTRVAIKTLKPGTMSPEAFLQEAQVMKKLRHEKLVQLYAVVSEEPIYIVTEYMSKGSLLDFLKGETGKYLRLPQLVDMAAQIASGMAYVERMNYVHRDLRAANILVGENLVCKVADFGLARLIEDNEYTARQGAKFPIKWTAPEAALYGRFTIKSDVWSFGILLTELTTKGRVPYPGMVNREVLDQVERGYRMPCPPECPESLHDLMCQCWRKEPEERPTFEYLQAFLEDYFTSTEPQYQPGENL
Chain of Receptor-type tyrosine-protein phosphatase alpha (Homo sapiens) (P18433 20-802 limits assumed): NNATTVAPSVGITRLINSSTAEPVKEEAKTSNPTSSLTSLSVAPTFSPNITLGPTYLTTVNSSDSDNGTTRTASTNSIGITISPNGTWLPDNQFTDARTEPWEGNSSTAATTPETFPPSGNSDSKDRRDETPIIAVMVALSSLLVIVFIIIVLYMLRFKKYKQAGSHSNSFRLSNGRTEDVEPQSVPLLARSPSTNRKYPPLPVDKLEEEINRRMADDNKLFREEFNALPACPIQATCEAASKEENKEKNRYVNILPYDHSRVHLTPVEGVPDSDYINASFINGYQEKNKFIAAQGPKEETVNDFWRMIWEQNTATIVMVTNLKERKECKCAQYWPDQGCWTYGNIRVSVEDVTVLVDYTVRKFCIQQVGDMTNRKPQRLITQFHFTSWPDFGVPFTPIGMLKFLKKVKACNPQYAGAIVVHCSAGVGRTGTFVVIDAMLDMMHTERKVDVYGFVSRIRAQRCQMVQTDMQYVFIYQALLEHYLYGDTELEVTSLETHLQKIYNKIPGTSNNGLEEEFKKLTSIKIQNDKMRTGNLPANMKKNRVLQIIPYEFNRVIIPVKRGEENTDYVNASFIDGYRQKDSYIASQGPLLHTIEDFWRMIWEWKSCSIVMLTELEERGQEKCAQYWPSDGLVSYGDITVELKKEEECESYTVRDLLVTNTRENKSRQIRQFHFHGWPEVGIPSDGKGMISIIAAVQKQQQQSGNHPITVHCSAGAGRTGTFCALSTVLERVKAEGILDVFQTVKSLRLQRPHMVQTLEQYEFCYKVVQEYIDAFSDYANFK

Take `CC(=O)N[C@@H](CCCCNC(=O)CCCC[C@@H]1SC[C@@H]2NC(=O)N[C@@H]21)C(=O)N[C@@H](CCC(=O)O)C(=O)N1CCC[C@H]1C(=O)N[C@@H](CCC(N)=O)C(=O)N[C@@H](Cc1ccc(OP(=O)(O)O)cc1)C(=O)N[C@@H](CCC(N)=O)C(=O)N1CCC[C@H]1C(=O)NCC(=O)N[C@@H](CCC(=O)O)C(=O)N[C@@H](CC(N)=O)C(=O)N[C@@H](CC(C)C)C(N)=O` (Ac-K(Biotin)EPQ[pY]QPGENL-NH2): the result in series [1], in series [2], in series [4] and in series [5] was inactive. For the same molecule, the Retention_time in series [3] is given as 6.6 min.

Regarding `CC(C)C[C@H](NC(=O)[C@H](CC(N)=O)NC(=O)[C@H](CCC(=O)O)NC(=O)CNC(=O)[C@@H]1CCCN1C(=O)[C@H](CCC(N)=O)NC(=O)[C@H](Cc1ccc(C(F)(F)P(=O)(O)O)cc1)NC(=O)[C@H](CCC(N)=O)NC(=O)[C@@H]1CCCN1C(=O)[C@H](CCC(=O)O)NC(=O)CCCC[C@@H]1SC[C@@H]2NC(=O)N[C@@H]21)C(N)=O` (Biotin-EPQ[F2Pmp]QPGENL-NH2), the Retention_time in series [3] was found to be 8 min. For the same molecule, the result in series [6] was inactive.

Take `C#CC[C@H](NC(=O)[C@H](CC(N)=O)NC(=O)[C@H](CCC(=O)O)NC(=O)CNC(=O)[C@@H]1CCCN1C(=O)[C@H](CCC(N)=O)NC(=O)[C@H](Cc1ccc(C(F)(F)P(=O)(O)O)cc1)NC(=O)[C@H](CCC(N)=O)NC(=O)[C@@H]1CCCN1C(=O)[C@H](CCC(=O)O)NC(=O)[C@H](CCCCNC(=O)CCCC[C@@H]1SC[C@@H]2NC(=O)N[C@@H]21)NC(=O)CCCCCN=[N+]=[N-])C(N)=O` ({Hexanoyl(6-N3)}-K(Biotin)EPQ[F2Pmp]QPGEN[Pra]-NH2): in series [3], the Retention_time is 9.5 min. Besides, in series [6], the outcome was inactive.

`NC(=O)CC[C@@H]1NC(=O)[C@@H]2CCCN2C(=O)[C@H](CCC(=O)O)NC(=O)[C@@H](CCCCNC(=O)CCCC[C@@H]2SC[C@@H]3NC(=O)N[C@@H]32)NC(=O)CCCCCn2cc(nn2)C[C@H](C(N)=O)NC(=O)[C@H](CC(N)=O)NC(=O)[C@H](CCC(=O)O)NC(=O)CNC(=O)[C@@H]2CCCN2C(=O)[C@H](CCC(N)=O)NC(=O)[C@H](Cc2ccc(O)cc2)NC1=O`: the Retention_time in series [3] turned out to be 8.5 min. The result in series [6] was inactive.

As to `NC(=O)CC[C@@H]1NC(=O)[C@@H]2CCCN2C(=O)[C@H](CCC(=O)O)NC(=O)[C@@H](CCCCNC(=O)CCCC[C@@H]2SC[C@@H]3NC(=O)N[C@@H]32)n2cc(nn2)C[C@H](C(N)=O)NC(=O)[C@H](CC(N)=O)NC(=O)[C@H](CCC(=O)O)NC(=O)CNC(=O)[C@@H]2CCCN2C(=O)[C@H](CCC(N)=O)NC(=O)[C@H](Cc2ccc(O)cc2)NC1=O`, the outcome in series [1], in series [2], in series [6], in series [4] and in series [5] was inactive. Further, in series [3], the Retention_time stood at 9.5 min.

Consider `NC(=O)CC[C@@H]1NC(=O)[C@@H]2CCCN2C(=O)[C@H](CCC(=O)O)NC(=O)[C@@H](CCCCNC(=O)CCCC[C@@H]2SC[C@@H]3NC(=O)N[C@@H]32)NC(=O)CCCCCn2cc(nn2)C[C@H](C(N)=O)NC(=O)[C@H](CC(N)=O)NC(=O)[C@H](CCC(=O)O)NC(=O)CNC(=O)[C@@H]2CCCN2C(=O)[C@H](CCC(N)=O)NC(=O)[C@H](Cc2ccc(C(F)(F)P(=O)(O)O)cc2)NC1=O`, for which the result in series [1] and in series [2] was inactive. The Retention_time in series [3] is on record as 7.1 min. In addition, the result in series [6], in series [4] and in series [5] was Active.

In series [3], `CC(=O)N[C@@H](CCCCNC(=O)CCCC[C@@H]1SC[C@@H]2NC(=O)N[C@@H]21)C(=O)N[C@@H](CCC(=O)O)C(=O)N1CCC[C@H]1C(=O)N[C@@H](CCC(N)=O)C(=O)N[C@@H](Cc1ccc(C(F)(F)P(=O)(O)O)cc1)C(=O)N[C@@H](CCC(N)=O)C(=O)N1CCC[C@H]1C(=O)NCC(=O)N[C@@H](CCC(=O)O)C(=O)N[C@@H](CC(N)=O)C(=O)N[C@@H](CC(C)C)C(N)=O` (Ac-K(Biotin)EPQ[F2Pmp]QPGENL-NH2) showed a Retention_time of 9.1 min. In addition, in series [6], the result was Active.

Molecule `NC(=O)CC[C@@H]1NC(=O)[C@@H]2CCCN2C(=O)[C@H](CCC(=O)O)NC(=O)[C@@H](CCCCNC(=O)CCCC[C@@H]2SC[C@@H]3NC(=O)N[C@@H]32)n2cc(nn2)C[C@H](C(N)=O)NC(=O)[C@H](CC(N)=O)NC(=O)[C@H](CCC(=O)O)NC(=O)CNC(=O)[C@@H]2CCCN2C(=O)[C@H](CCC(N)=O)NC(=O)[C@H](Cc2ccc(C(F)(F)P(=O)(O)O)cc2)NC1=O` gave a Retention_time in series [3] of 7.1 min. In addition, the result in series [6] was Active.

In series [3], `C#CC[C@H](NC(=O)[C@H](CC(N)=O)NC(=O)[C@H](CCC(=O)O)NC(=O)CNC(=O)[C@@H]1CCCN1C(=O)[C@H](CCC(N)=O)NC(=O)[C@H](Cc1ccc(C(F)(F)P(=O)(O)O)cc1)NC(=O)[C@H](CCC(N)=O)NC(=O)[C@@H]1CCCN1C(=O)[C@H](CCC(=O)O)NC(=O)[C@H](CCCCNC(=O)CCCC[C@@H]1SC[C@@H]2NC(=O)N[C@@H]21)N=[N+]=[N-])C(N)=O` (Biotin-[X1]EPQ[F2Pmp]QPGEN[Pra]-NH2) came in with a Retention_time of 8.8 min. Further, the outcome in series [6] was inactive.

(Values after ChEMBL document CHEMBL3425432, “Azide-alkyne cycloaddition-mediated cyclization of phosphonopeptides and their evaluation as PTP1B binders and enrichment tools” (Bioorg Med Chem, 2015).)
